# In patent US10993957B2 (NuCana plc, priority 2011, dated 2021):
# Read-outs that look alike come from different tables or passages of the source.
# Legend:
# L1210/0 = assay: Cytostatic assay, L1210/0 cells; format: cell-based, murine; conditions: Mus musculus; for IC50: read-out: IC50 L1210/0
# Source text: (§1) The cell lines employed were L1210/0 (a leukemia cell line), FM3A/0 (a breast cancer cell line), Cem/0 (an acute lymphoblastic leukemia cell line) and HeLa (a cervical cell line).
# L1210/TK^− = assay: Cytostatic assay, thymidine kinase-deficient L1210/TK^− cells; format: cell-based, murine; conditions: Mus musculus; for IC50: L1210
# FM3A/0 = assay: Cytostatic assay, FM3A/0 cells; format: cell-based; conditions: Mus musculus, FM3A/0; Table 1; read-out: CC50 FM3A/0
# Procedure: The samples were assayed for biological activity versus a range of tumour cell lines with data recorded in Table 1 below. […] The cell lines employed were L1210/0 (a leukemia cell line), FM3A/0 (a breast cancer cell line), Cem/0 (an acute lymphoblastic leukemia cell line) and HeLa (a cervical cell line).
# HeLa/TK^− = assay: Cytostatic assay, HeLa/TK^− cells; format: cell-based; conditions: Homo sapiens, HeLa
# Source text: as §1
# U87 = assay: Cytostatic assay, U87 cells; format: cell-based; conditions: Homo sapiens, U-87 MG, read-out: IC50 U87
# Procedure: All cells were maintained in Dulbecco's modified Eagle's medium (DMEM) (Invitrogen, Carlsbad, Calif.) with 10% foetal bovine serum (FBS) (Biochrom AG, Berlin, Germany), 10 mM Hepes and 1 mM Sodium Pyruvate (Invitrogen). Cells were grown at 37° C. in a humidified incubator with a gas phase of 5% CO2.
# After 24 hours, an equal volume of fresh medium containing the test compounds was added. On day 5, cells were trypsinized and counted in a Coulter counter (Analis, Suarlée, Belgium). […] The cells were allowed to proliferate for 48 h (L1210) or 72 hours (CEM) and were then counted in a Coulter counter.
# human TP = target: T1, human TP (Homo sapiens, UniProt P19971); assay: Phosphorolysis by human TP, HPLC; conditions: 100 μM compound, room temperature, 0-40 min
# T1 sequence (P19971 11-482): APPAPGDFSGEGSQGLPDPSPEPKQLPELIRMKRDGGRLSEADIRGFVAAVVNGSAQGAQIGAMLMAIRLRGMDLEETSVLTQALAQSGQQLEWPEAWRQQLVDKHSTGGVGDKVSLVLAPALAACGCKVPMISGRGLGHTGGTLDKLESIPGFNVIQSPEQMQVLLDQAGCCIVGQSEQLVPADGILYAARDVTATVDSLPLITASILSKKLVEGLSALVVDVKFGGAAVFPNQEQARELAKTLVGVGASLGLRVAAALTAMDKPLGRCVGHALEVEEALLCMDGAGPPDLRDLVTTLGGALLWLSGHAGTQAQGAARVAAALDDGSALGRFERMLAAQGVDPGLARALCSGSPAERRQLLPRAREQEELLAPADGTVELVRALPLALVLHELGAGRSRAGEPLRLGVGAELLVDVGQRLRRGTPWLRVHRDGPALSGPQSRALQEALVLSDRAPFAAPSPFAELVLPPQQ
# Procedure: Reaction mixtures containing 100 μM test compound and recombinant TP or UP (human TP: 8.6 ng/μL; E. coli TP: 3.0 ng/μL; human UP: 4 ng/mL) in a total volume of 500 μL reaction buffer (10 mM TrisHCl; 300 μM NaCl; 1 mM EDTA; 2 mM KH2PO4/K2HPO4) were incubated at room temperature. At different time points (i.e. 0, 20, 40 min) 100 μL aliquots of the reaction mixtures were withdrawn and heated at 95° C. for 3 min to inactivate the enzyme. […] The separation of Urd from uracil was performed by a linear gradient from 100% separation buffer (see above) to 60% separation buffer+40% acetonitrile (3 min 100% separation buffer; 6 min linear gradient of 100% separation buffer to 60% separation buffer+40% acetonitrile; 6 min 60% separation buffer+40% acetonitrile, followed by equilibration at 100% separation buffer).
# [1] = target: thymidylate synthase (TS) (Mus musculus, UniProt P07607); assay: TS activity in intact L1210/TK^− cells (tritium release); format: cell-based, murine; conditions: tritium release from [5-3H]dCyd, 4 hours preincubation; read-out: IC50 against TS, L1210/TK^−
# Procedure: The activity of TS in intact L1210/0 and L1210/TK^− cells was measured by evaluation of tritium release from [5-^3H]dUMP (formed in the cells from [5-^3H]dUrd or [5-^3H]dCyd) in the reaction catalysed by TS. This method has been described in detail by Balzarini & De Clercq (1984). […] After 30 min, 2 h and 4 h preincubation of the cells with the compounds at 37° C., 1 μCi of [5-^3H]dUrd or [5-^3H]dCyd was added to the cell cultures. After 30 min incubation, 100 μL of the cell suspensions were withdrawn and added to a cold suspension of 500 μL activated charcoal (VWR, Haasrode, Belgium) (100 mg/ml in TCA 5%). After 10 min, the suspension was centrifuged at 13,000 rpm for 10 min, after which the radioactivity in 400 μL supernatant was counted in a liquid sinctillator using OptiPhase HiSafe (Perkin Elmer, Waldham, Mass.).
# [2] = Stability in buffer at pH 1 by 31P NMR; format: physicochemical; conditions: 14 hours
# Procedure: The stability of the prodrug CPF-373 towards hydrolysis at pH=1 was studied using in situ ^31P NMR (202 MHz). The ProTide CPF-373 (1) (2.6 mg) was dissolved in MeOD (0.1 mL) after which 0.5 mL buffer (pH=1) (prepared from equal parts of 0.2 M HCl and 0.2 M KCl) was added. Then the sample was transferred into an NMR tube, and a ^31P NMR experiment was performed at 37° C. recording the data every 12 minutes for 14 hours. Data were processed and analysed with the Bruker Topspin 2.1 program.
# A chemical hydrolysis was evaluated under experimental conditions at pH 1 and pH 8 and monitored by ^31P NMR. During the assay (14 h) under acidic conditions (pH 1) only two peaks representing the two diastereoisomers were recorded.
# [3] = Table 3, read-out: IC50 L1210/TK−
# [4] = Table 6, read-out: IC50 L1210/TK^−
# Sequence of thymidylate synthase (TS) (P07607 whole entry): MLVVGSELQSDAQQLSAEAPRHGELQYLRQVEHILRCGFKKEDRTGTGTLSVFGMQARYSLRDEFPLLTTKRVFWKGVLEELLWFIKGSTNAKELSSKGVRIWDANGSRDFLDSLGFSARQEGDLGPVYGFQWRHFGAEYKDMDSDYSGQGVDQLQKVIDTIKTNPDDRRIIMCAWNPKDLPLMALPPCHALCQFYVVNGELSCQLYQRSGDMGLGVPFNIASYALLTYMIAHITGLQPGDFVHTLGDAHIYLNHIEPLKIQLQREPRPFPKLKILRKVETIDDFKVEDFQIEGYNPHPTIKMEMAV
SMILES,"CC50 (L1210/0; L1210/0, Table 2, mycoplasma negative cells, read-out: CC50 L1210) [nM]","IC50 (L1210/0; L1210/0, Table 3) [nM]","IC50 (L1210/0; L1210/0, Table 6) [nM]","IC50 (L1210/0; L1210/0, Table 7) [nM]",IC50 (L1210/TK^−; [3]) [nM],IC50 (L1210/TK^−; [4]) [nM],CC50 (FM3A/0) [nM],"CC50 (HeLa/TK^−; Table 1, read-out: CC50 HeLa/TK^−) [nM]","IC50 (HeLa/TK^−; Table 6, read-out: IC50 HeLa/TK^−) [nM]",IC50 (U87) [nM],Phosphorolysis by human TP (human TP),IC50 [1] [nM],Stability towards hydrolysis at pH 1 [2],"CC50 (L1210/TK^−; L1210, Table 1, read-out: CC50 L1210/TK^−) [nM]",IC50 (U87; Table 3) [nM]
"C[C@H](NP(=O)(OC[C@H]1O[C@@H](n2cc(F)c(=O)[nH]c2=O)CC1O)Oc1cccc2ccccc12)C(=O)OCc1ccccc1 (stereo partly drawn) [CPF 373, 5-Fluoro-2′deoxyuridine-5′-O-[1-naphthyl (benzoxy-L-alaninyl)] phosphate]",11,11,11 ± 7,11 ± 9,27,45 ± 27,59 ± 46,2500 ± 1300,2500 ± 1300,35,fully stable,53,full stability,,
"O=c1[nH]c(=O)n([C@H]2C[C@H](O)[C@@H](CO)O2)cc1F [5-FdUrd, 5-fluoro-2′-deoxyuridine, reference compound]",,,,,3100,3000 ± 100,6.5 ± 5.5,,,,,1420 ± 90,,3100 ± 200,7 ± 1
